Patent US20250188075A1, “SUBSTITUTED HETEROCYCLIC CSNK1 INHIBITORS” (The Broad Institute, Inc., priority 2022, published 2025)

What was measured:
human CSNK1D = human CSNK1D (Homo sapiens (Human), UniProt P48730); experiment: CSNK1D assay (ADP-Glo, 1 μM ATP); assay type: biochemical; conditions: median, read-out: CSNK1D IC50 [mol/l] (median)
Method: CSNK1D-inhibitory activity of compounds of the present invention in presence of 1 μM adenosine-tri-phosphate (ATP) was quantified employing the CSNK1D assay as described in the following paragraphs. In essence, the enzyme activity is measured by quantification of the adenosine-di-phosphate (ADP), which is generated as a co-product of the enzyme reaction, via the “ADP-Glo™ Kinase Assay” kit from the company Promega. This detection system works as follows: In a first step the ATP not consumed in the kinase reaction is quantitatively converted to CAMP employing an adenylate cyclase (“ADP-Glo-reagent”), then the adenylate cyclase is stopped and the ADP generated in the kinase reaction converted to ATP which generates in a luciferase-based reaction a glow-luminescence signal (“Kinase Detection Reagent”).
Recombinant fusion protein of N-terminal Glutathion-S-Transferase (GST) and full-length human CSNK1D, expressed by baculovirus infected insect cells and purified via Glutathion affinity chromatography, was purchased from Life Technologies (product no. PV3665) and used as enzyme. As substrate for the kinase reaction the biotinylated peptide Btn-Ahx-SGSEGDSESGEEEG (C-terminus in amide form) was used which can be purchased e.g. from the company Biosyntan (Berlin-Buch, Germany).
For the assay 50 nl of a 100-fold concentrated solution of the test compound in DMSO was pipetted into a white 1536-well microtiter plate (Greiner Bio-One, Frickenhausen, Germany), 2 μL of a solution of CSNK1D in aqueous assay buffer [50 mM HEPES pH 7.5, 10% (v/v) glycerol, 10 mM MgCl2, 50 mM NaCl, 1 mM dithiothreitol, 0.01% (w/v) bovine serum albumin, 0.01% (v/v) Triton X-100] were added and the mixture was incubated for 15 min at 22° C. to allow pre-binding of the test compounds to the enzyme before the start of the kinase reaction. Then the kinase reaction was started by the addition of 3 μL of a solution of ATP (1.67 μM=>final conc. in the 5 μL assay volume is 1 μM) and peptide substrate (50 μM=>final conc. in the 5 μL assay volume is 30 μM) in assay buffer and the resulting mixture was incubated for a reaction time of 30 min at 22° C. The concentration of CSNK1D was adjusted depending of the activity of the enzyme lot and was chosen appropriate to have the assay in the linear range, a typical concentration is about 0.5 ng/μL. The reaction was stopped by the addition of 2.5 μL of “ADP-Glo-reagent” (1:1.5 fold diluted with water) and the resulting mixture was incubated at 22° C. for 1 h to convert the ATP not consumed in the kinase reaction completely to CAMP. Subsequently 2.5 μL of the “kinase detection reagent” (1.2 fold more concentrated than recommended by the producer) were added, the resulting mixture was incubated at 22° C. for 1 h and then the luminescence measured with a suitable measurement instrument (e.g. Viewlux™ from Perkin-Elmer). The amount of emitted light was taken as a measure for the amount of ADP generated and thereby for the activity of the CSNK1D.
The data were normalised (enzyme reaction without inhibitor=0% inhibition, all other assay components but no enzyme=100% inhibition).

LoVo cells = experiment: LoVo cell proliferation assay, CTG method; assay type: cell-based; conditions: Homo sapiens, 96 h, median, read-out: 2D-PROLI LoVo CTG 96 h, IC50 - [mol/l] (median)
Method: CELL PROLIFERATION ASSAY CTG METHOD, 384-well version: Day 1: plate 400 cells/30 μL/well in growth medium (RPMI 1640 (Gibco #61870-10; with Glutamax)+10% FBS) in 384-well black plates (Corning #3571). Plated sister wells in a separate plate for time zero determination. Incubated all plates overnight at 37° C. Day 2: added test compounds in serial dilutions using the HP D300 Digital Dispenser and incubate at 37° C. for 96 h. Measured time zero plate: add 30 μL/well CTG solution (Promega CellTiter-Glo solution (catalog #G7573)) to wells in time zero plate; incubated for 2 minutes in a orbital shaker to induce cell lysis; allowed the plate to incubate at room temperature for additional 10 min to stabilize luminescent signal and read luminescence on PheraStar (rapid mode-0.02 sec/well; GAIN 3000). Day 6: Added 30 μL/well CTG solution to all test wells, incubated for 2 minutes in a orbital shaker to induce cell lysis; allowed the plate to incubate at room temperature for additional 10 min to stabilize luminescent signal and read luminescence on PheraStar (rapid mode-0.02 sec/well; GAIN 3000). Proliferation IC50s were calculated using the DRC application in ShiNy Analysis Platform-SNAP.”

HCT 116 cells = experiment: HCT 116 cell proliferation assay, CTG; assay type: cell-based; conditions: Homo sapiens; HCT 116, CTG, 96 h; median; read-out: 2D-PROLI HCT 116 CTG 96 h, IC50 - [mol/l] (median)
Method: 400 HCT 116 cells/30 μL/well were plated in growth medium (DMEM/Ham's F12, 10% FCS) in a 384-well plate (CORNING #3571) at day 1. Reference plate was seeded for time zero determination. All plates were incubated overnight 37° C. Day 2: test compound was added in 7-step dilution and incubate at 37° C. for 96 h. Day 2: time zero plate: 30 μL/well CTG solution (Promega Cell Titer Glo solution; catalog #G755B and G756B) were added, incubated for 30 minutes, read luminescence on PheraStar. Day 6: compound treated plates: 30 μL/well CTG solution (Promega Cell Titer Glo solution; catalog #G755B and G756B) were added, incubated for 30 minutes, luminescence was read on PheraStar. Proliferation was calculated after subtracting time zero luminescence values from day 6 values and comparing to untreated wells. The IC50 values were determined using the four parameter fit.

human CSNK1D, sequence (P48730 whole entry): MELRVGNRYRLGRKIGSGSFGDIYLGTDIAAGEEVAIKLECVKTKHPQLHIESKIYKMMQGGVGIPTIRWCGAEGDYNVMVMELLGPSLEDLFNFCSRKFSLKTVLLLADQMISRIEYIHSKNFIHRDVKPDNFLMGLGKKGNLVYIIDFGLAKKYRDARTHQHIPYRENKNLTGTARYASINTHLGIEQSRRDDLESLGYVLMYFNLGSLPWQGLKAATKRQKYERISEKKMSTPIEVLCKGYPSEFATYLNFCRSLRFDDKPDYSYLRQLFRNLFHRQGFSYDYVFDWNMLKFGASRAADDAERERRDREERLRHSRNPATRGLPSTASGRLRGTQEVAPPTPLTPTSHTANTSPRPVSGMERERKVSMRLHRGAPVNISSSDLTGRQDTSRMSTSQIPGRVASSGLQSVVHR

Cc1cc(CC(=O)Nc2cc(-c3[nH]c4cccnc4c3-c3ccccn3)ccn2)nn1C [Example 16, 2-(1,5-dimethylpyrazol-3-yl)-N-[4-[3-(2-pyridyl)-^1H-pyrrolo[3,2-b]pyridin-2-yl]-2-pyridyl]acetamide]
IC50 (human CSNK1D): 6.57 nM | IC50 (LoVo cells): 1500 nM | IC50 (HCT 116 cells): 706 nM

Cc1nn(C)c(C)c1CC(=O)Nc1cc(-c2[nH]c3cccnc3c2-c2ccccn2)ccn1 [Example 17, N-[4-[3-(2-pyridyl)-^1H-pyrrolo[3,2-b]pyridin-2-yl]-2-pyridyl]-2-(1,3,5-trimethylpyrazol-4-yl)acetamide]
IC50 (human CSNK1D): 6.87 nM | IC50 (LoVo cells): 5660 nM | IC50 (HCT 116 cells): 1030 nM

Cc1nc(C)c(CC(=O)Nc2cc(-c3[nH]c4cccnc4c3-c3ccccn3)ccn2)s1 [Example 18, 2-(2,4-dimethylthiazol-5-yl)-N-[4-[3-(2-pyridyl)-^1H-pyrrolo[3,2-b]pyridin-2-yl]-2-pyridyl]acetamide]
IC50 (human CSNK1D): 3.8 nM | IC50 (LoVo cells): 1130 nM | IC50 (HCT 116 cells): 179 nM

Cn1cc(C(CC(F)F)C(=O)Nc2cc(-c3[nH]c4cccnc4c3-c3ccccn3)ccn2)cn1 (stereo not drawn) [Example 19, 4,4-difluoro-2-(1-methylpyrazol-4-yl)-N-[4-[3-(2-pyridyl)-^1H-pyrrolo[3,2-b]pyridin-2-yl]-2-pyridyl]butanamide]
IC50 (human CSNK1D): 13.9 nM | IC50 (LoVo cells): 5500 nM | IC50 (HCT 116 cells): 1680 nM

O=C(Cc1ccn(CC(F)(F)F)n1)Nc1cc(-c2[nH]c3cccnc3c2-c2ccccn2)ccn1 [Example 20, N-[4-[3-(2-pyridyl)-^1H-pyrrolo[3,2-b]pyridin-2-yl]-2-pyridyl]-2-[1-(2,2,2-trifluoroethyl)pyrazol-3-yl]acetamide]
IC50 (human CSNK1D): 4.93 nM | IC50 (LoVo cells): 1370 nM | IC50 (HCT 116 cells): 344 nM

Cn1nc(CC(=O)Nc2cc(-c3[nH]c4cccnc4c3-c3ccccn3)ccn2)cc1C(F)(F)F [Example 21, 2-[1-methyl-5-(trifluoromethyl)pyrazol-3-yl]-N-[4-[3-(2-pyridyl)-^1H-pyrrolo[3,2-b]pyridin-2-yl]-2-pyridyl]acetamide]
IC50 (human CSNK1D): 4.88 nM | IC50 (LoVo cells): 427 nM | IC50 (HCT 116 cells): 362 nM

O=C(Cc1ccns1)Nc1cc(-c2[nH]c3cccnc3c2-c2ccccn2)ccn1 [Example 22, 2-isothiazol-5-yl-N-[4-[3-(2-pyridyl)-^1H-pyrrolo[3,2-b]pyridin-2-yl]-2-pyridyl]acetamide]
IC50 (human CSNK1D): 4.84 nM | IC50 (LoVo cells): 2000 nM | IC50 (HCT 116 cells): 357 nM

O=C(Cc1ccno1)Nc1cc(-c2[nH]c3cccnc3c2-c2ccccn2)ccn1 [Example 23, 2-isoxazol-5-yl-N-[4-[3-(2-pyridyl)-^1H-pyrrolo[3,2-b]pyridin-2-yl]-2-pyridyl]acetamide]
IC50 (human CSNK1D): 4.68 nM | IC50 (LoVo cells): 5410 nM | IC50 (HCT 116 cells): 553 nM

Cc1ncc(CC(=O)Nc2cc(-c3[nH]c4cccnc4c3-c3ccccn3)ccn2)o1 [Example 24, 2-(2-methyloxazol-5-yl)-N-[4-[3-(2-pyridyl)-^1H-pyrrolo[3,2-b]pyridin-2-yl]-2-pyridyl]acetamide]
IC50 (human CSNK1D): 5.37 nM | IC50 (LoVo cells): 2380 nM | IC50 (HCT 116 cells): 418 nM

Cc1nc(CC(=O)Nc2cc(-c3[nH]c4cccnc4c3-c3ccccn3)ccn2)co1 [Example 25, 2-(2-methyloxazol-4-yl)-N-[4-[3-(2-pyridyl)-^1H-pyrrolo[3,2-b]pyridin-2-yl]-2-pyridyl]acetamide]
IC50 (human CSNK1D): 8.44 nM | IC50 (LoVo cells): 2110 nM | IC50 (HCT 116 cells): 985 nM

Cc1cc(CC(=O)Nc2cc(-c3[nH]c4cccnc4c3-c3ccccn3)ccn2)no1 [Example 26, 2-(5-methylisoxazol-3-yl)-N-[4-[3-(2-pyridyl)-^1H-pyrrolo[3,2-b]pyridin-2-yl]-2-pyridyl]acetamide]
IC50 (human CSNK1D): 6.64 nM | IC50 (LoVo cells): 2100 nM | IC50 (HCT 116 cells): 496 nM

O=C(Cc1cc(C2CC2)on1)Nc1cc(-c2[nH]c3cccnc3c2-c2ccccn2)ccn1 [Example 27, 2-(5-cyclopropylisoxazol-3-yl)-N-[4-[3-(2-pyridyl)-^1H-pyrrolo[3,2-b]pyridin-2-yl]-2-pyridyl]acetamide]
IC50 (human CSNK1D): 6.38 nM | IC50 (LoVo cells): 749 nM | IC50 (HCT 116 cells): 489 nM
